Measurements from patent US20170121678A1, “METHODS AND COMPOSITIONS TO STABILIZE DIFFERENT STEM CELL STATES” (UNIVERSITY OF WASHINGTON - CENTER COMMERCIALIZATION, priority 2014, published 2017).
Entries after “also recorded” stand apart in the source; their conditions may differ.

What was measured:
Assay type in all cases: cell-based, human
[1] = tested on: histone methylation marks (H3K27me3, H3K9me3, H3K4me3, H3K9/K14Ac) in hESCs; assay: Western blot analysis of histone marks; conditions: 1MNA 0.5 mM, 72 hr, primed hESCs (Elf1 AF), low L-methionine media
Method: Cellular extracts were prepared using a lysis buffer containing 20 mM Tris HCl (pH 7.5), 150 mM NaCl, 15% glycerol, 1% Triton, 25 mM (3-glycerolphosphate, 50 mM NaF, 10 mM sodium pyrophosphate, orthovanadate, PMSF), protease inhibitor cocktail (Roche) and 2% SDS. 25 U of BENZONASE® nuclease (EMD Chemicals) and 20 mM of DTT were added to the lysis buffer right before use. Protein concentrations were then determined by the method of Bradford. Fifteen micrograms of protein extracts were loaded, separated by 4-20% SDS-PAGE, and transferred to polyvinylidene difluoride membranes (Hybond-N+, Amersham Pharmacia Biotech). Membranes were blocked with 5% nonfat dry milk for 60 min at room temperature, and incubated overnight at 4° C. with primary antibody. […]
Naïve hESCs (Elf1 2iLIF) grown on MATRIGEL® were treated with 100 μM of STAT3 inhibitor (Selleckchem) for 6 hr or 24 hr and analyzed for methylation marks by Western blot and ChIP Seq. […]
(§1) Naïve Elf1 2iLIF cells were transfected in MATRIGEL® coated plates in MEF-CM supplemented with ROCK inhibitors (Torcis) using LIPOFECTAMINE™ RNAiMAX™ (Life Technologies). siRNA targeting NNMT (Hs-NNMT-8) was purchased from Qiagen as FLEXITUBE® siRNA premix, and siRNA targeting luciferase was used as control. siRNAs against NNMT and luciferase were used at 50 nM final concentration. […] Bright field and fluorescence images were taken after 3 days. […]

[2] = tested on: Wnt signaling (BAR reporter) in Elf1 cells; assay: BAR Wnt reporter activity in Elf1 reporter cells; conditions: for BAR reporter activity: naïve Elf1 cells, 72 h, IWP2 2 μM, XAV939 5 μM, siRNA 10 nM
Method: Elf1 cells grown in naïve media (2iL or 2iLIF) or primed media (AF) were infected with BAR reporter lentivirus and seeded onto MATRIGEL®-coated plates in MEF-CM with 10 μM Y-27632, and 1 μM Thiazovivin (ROCK inhibitors, Tocris). Transduced Elf cells were cultured for a week on MATRIGEL®, then passaged onto MEF plates for further selection and expansion. Elf1 naïve reporter cells were harvested as single cells via TRYPLE™ Express and FACS sorted for the population with both Venus and DsRed (Discosoma sp. Red fluorescent protein) positive signals. DsRed positive colonies of Elf1 primed reporter cells were manually dissected, transferred onto MEF plates, and the same positive selection was repeated one more round or two depending on the selection efficiency. Negative colonies were manually removed as a negative selection. Once the DsRed positive lines were isolated and stable lines established, the primed Elf1 reporter cells were passaged with dispase.
(§2) Wnt secretion and signaling were inhibited in naïve hESCs (Elf1, WIN1) by treatment with IWP2 (2 μM, Torcis) or XAV939 (5 μM, Sigma). Wnt pathway was activated in primed Elf1 AF reporter cells using a GSK3 inhibitor, CHIR99021 (72 hr, 10 μM, AxonMedChem). Both IWP2 and CHIR99021 were reconstituted in DMSO.
L and L-Wnt3A cells (ATCC) were cultured in 15 cm plates in 10% FBS/DMEM media until 90% confluent. Medium was collected every 48 hr for three batches. Biological activity of secreted Wnt3A in the individual batches of the conditional medium was confirmed in 293T-BAR reporter cells, then batches were pooled and filtered. Primed (Elf1 AF) reporter cells were grown on MATRIGEL® with 50% LCM or 50% Wnt3A-CM for 3 days prior taking bright field and fluorescent pictures.
Naïve Elf1 2iLIF cells were transfected in MATRIGEL® coated plates in MEF-CM supplemented with ROCK inhibitors (Torcis) using LIPOFECTAMINE™ RNAiMAX™ (Life Technologies). siRNA targeting NNMT (Hs-NNMT-8) was purchased from Qiagen as FLEXITUBE® siRNA premix, and siRNA targeting luciferase was used as control. siRNAs against NNMT and luciferase were used at 50 nM final concentration. Proteins and RNAs were extracted 72 hr after transfection. siRNA targeting beta-catenin (Invitrogen, CTNNBI, SILENCER® Select ID s437) and SILENCER® Select Negative Control 1 (Invitrogen) were transfected in naïve Elf1 2iLIF cells at 10 nM final concentration following a reverse transfection protocol. Bright field and fluorescence images were taken after 3 days. The efficacy of NNMT and beta-catenin siRNAs was confirmed by qPCR analysis.

[3] = tested on: naïve hESCs (WIN1, Elf1); assay: Seahorse mitostress protocol, OCR changes in response to FCCP; conditions: for OCR changes in response to FCCP: naïve hESCs (WIN1)
Method: Naïve and primed ESCs were seeded in their specific growth media onto 96-well Seahorse plates (Seahorse Bioscience) pre-coated with MATRIGEL® at 25×10^4 or 40×10^4 cells/well. Culture media were exchanged for base media (unbuffered DMEM (Sigma D5030) supplemented with sodium pyruvate (Gibco, 1 mM) and with 25 mM glucose (for mito stress assay), 25 mM glucose and 50 μM carnitine (for palmitate assay), or 2 mM glutamine (for glucose stress assay)) 1 hr prior to the assay and for the duration of the measurement. Substrates and selective inhibitors were added during the measurements to achieve final concentrations of glucose (2.5 mM), […] (FCCP, 300 nM-500 nM), oligomycin ([…]), antimycin (2.5 μM), rotenone (2.5 μM), palmitate (50 μM in BSA), BSA (bovine serum albumin) and ETO (50 μM).
The mitochondrial stress protocol starts with the measurement of baseline oxygen consumption rate (OCR) and extracellular acidification rate (ECAR) followed by measurement of OCR and ECAR changes in response to addition of oligomycin, FCCP and finally antimycin and rotenone.
Then palmitate assay starts with the measurement of baseline OCR followed by measurement of OCR changes in response to injection of palmitate or BSA (in negative controls) and ETO. The OCR and ECAR values were further normalized to the number of cells present in each well, quantified by Hoechst staining (H033342; Sigma-Aldrich) as measured using fluorescence at 355 nm excitation and 460 nm emission (ENVISION® 2104 Multilabel reader, Perkin Elmer). Changes in OCR and ECAR in response to substrates and inhibitors addition were defined as the maximal change after the chemical addition compared to the last OCR value before the addition.
as §2
WIN1 and Elf1 cells were seeded in Seahorse plates in naïve (WIN1, Elf1) or primed (WIN1 AF) conditions with or without Kynurenine (100 μM, Sigma) and mitostress protocol was performed 2 days later.
WIN1 cells were seeded in Seahorse plates 2 days prior change of media with media without L-methionine (Sigma 0422 supplemented with 0.584 gm/L L-glutamine) and addition of SAM (500 μM). Five hours later Seahorse mitostress protocol was performed.

[4] = tested on: NNMT, miR-372, miR-10a expression in naïve hESCs (Elf1); assay: qPCR analysis of NNMT and microRNA expression; conditions: IWP2 2 μM, 72 hr
Method: Total RNA was extracted using TRIZOL® and subsequently analyzed by SYBR® green qPCR with the 7300 real time PCR system (Applied Biosystems) as well as TAQMAN® qPCR (Applied Biosystems).
qPCR of miRNAs was conducted using AQMAN®miRNA assays (Applied Biosystems). Raw Ct (threshold cycle) values for miRNAs were normalized to RNU66 (endogenous snoRNA, internal control). Linear expression values for all qPCR experiments were calculated using the 2 (−ΔCt) method. P-values were calculated using a student's t-test (*p<0.05, **p<0.01, ***p<0.001).
as §2, §1

[5] = primed hESCs (Elf1 AF), 3 days, CHIR99021 10 μM, 50% Wnt3A-CM

C[n+]1cccc(C(N)=O)c1 [1MNA, 1-methylnicotinamide]
H3K27me3 mark [1]: reduces
H3K27me3 mark ([1]; listed as 1 MNA): decreased

Cc1c[nH]c(-c2cnc(NCCNc3ccc(C#N)cn3)nc2-c2ccc(Cl)cc2Cl)n1 [CHIR99021]
BAR reporter [2, 5]: re-activation
differentiation [2, 5]: induces differentiation

Cc1ccc2nc(NC(=O)CSc3nc4c(c(=O)n3-c3ccccc3)SCC4)sc2c1 [IWP2]
OCR changes after FCCP ([3]; IWP2 2 μM, 48 hr, naïve hESCs (Elf1, WIN1) and transitioning to primed (WIN1 AF)): decreases
NNMT expression (qPCR) [4]: downregulates
miR-372 expression (qPCR) [4]: downregulates
BAR reporter activity [2]: represses; also recorded: inhibit

C[S+](CC[C@H](N)C(=O)[O-])C[C@H]1O[C@@H](n2cnc3c(N)ncnc32)[C@H](O)[C@@H]1O (stereo partly shown) [SAM, S-adenosyl methionine]
OCR changes in response to FCCP ([3]; SAM 500 μM, 5 hr, media without methionine): reduces
metabolic profile in naïve hESCs ([3]; high levels of SAM (FIG. 4K-4L)): induce a primed-like metabolic profile

Oc1nc(-c2ccc(C(F)(F)F)cc2)nc2c1CSCC2 [XAV939]
BAR reporter activity [2]: dramatically downregulated; also recorded: inhibit

Nc1ccccc1C(=O)CC(N)C(=O)O (stereo not shown) [kynurenine]
OCR changes in response to FCCP ([3]; kynurenine 100 μM, 2 days): reduced
naïve to primed hESC metabolic switch ([3]; kynurenine added to the media (FIG. 4E)): accelerated
